Laboratory results taken from US5665765A, “5,6,7,8-tetrahydronaphtho[2,3-b]furan and indano[5,6-b]furan amine compounds” (Adir et Compagnie, priority 1995, dated 1997).

biological target: T1, human dopamine D3 receptor (Homo sapiens, UniProt P35462); experiment: binding to human D3 receptors expressed in CHO cells ([125I]-iodosulpride); settings: not given
T1 construct: expressed in transfected cells; membranes
Description: (§1) STUDY OF THE BINDING OF THE COMPOUNDS OF THE INVENTION TO HUMAN D2 AND D3 RECEPTORS EXPRESSED IN CHO CELLS
(§2) CHO (Chinese Hamster Ovary) cells were transfected in a stable manner by the gene coding for the human dopamine D2 or D3 receptor according to methods known from the literature. The native cells are deficient in the enzyme DHFR (DiHydroFolate Reductase). Those cells are cultured in a vessel at 37° C. in a humid atmosphere of 5% CO2 : 95% air. The transfections were carried out using Lipofectine (Gibco). The CHO cells, cotransfected with the human D2 receptor and the gene for resistance to phleomycin, were selected for their resistance to the presence of that antibiotic in the culture medium. The cells transfected with the human D3 receptor were selected in a medium lacking in hypoxanthine/thymidine, in the presence of methotrexate. The compositions of the culture media used are, for CHO--D2 : DMEM (Dulbecco's Modified Eagle Medium) supplemented with 10% foetal calf serum and hypoxanthine/thymidine and, for CHO--D3 : DMEM supplemented with 10% dialysed foetal calf serum. The confluent cells are harvested and the membranes are then prepared.
After a few minutes in the presence of 0.2% trypsin, the cells are recovered and centrifuged at 2000 g for 5 minutes. The cell mass, resuspended in […] tris-HCl buffer, pH 7.5, containing 5 mM MgSO4, is then […] over Polytron®. The homogenate is then centrifuged at 50 000 g for 15 minutes, and the mass is resuspended by gentle sonication in an incubation buffer of the following composition: 50 mM tris-HCl, pH 7.5, containing 120 mM NaCl, 5 mM KCl, 2 mM CaCl2 and 5 mM MgCl2. The membranes are then divided into aliquots and preserved at -80° C. until the day of the experiment.
The incubation is carried out in polypropylene tubes at a final volume of 400 μl containing:
100 μl of [^125 I]-iodosulpride (Amersham) at 0.1 and 0.2 nM for the D2 and D3 receptors respectively.
100 μl of buffer (total tubes)
100 μl of raclopride 10 μM (non-specific binding)
200 μl of membrane preparation containing the D2 or D3 receptors, in a buffer to which
0.2% BSA (bovine serum albumin) has been added.
(§3) The ranges of concentration of each compound include at least 7 points determined in triplicate; each experiment is repeated at least twice.
The incubation, which lasts 30 minutes at 30° C., is terminated by rapid filtration in a Brandle apparatus, followed by three consecutive washes with tris-HCl buffer, pH 7.4, containing 120 m M NaCl. The filters recovered are then counted with a gamma counter.
The IC50, which represents the concentration that gives a 50% inhibition of the binding of the radioligand, is calculated by non-linear regression (Prism Graph method). The Ki value is derived from the formula Ki=IC50 (1+L/Kd) where L is the concentration of [^125 I]-iodosulpride used in the experiment and Kd its dissociation constant. The results are expressed in the form of pKi (pKi=-logKi).

T1 sequence (P35462 whole entry): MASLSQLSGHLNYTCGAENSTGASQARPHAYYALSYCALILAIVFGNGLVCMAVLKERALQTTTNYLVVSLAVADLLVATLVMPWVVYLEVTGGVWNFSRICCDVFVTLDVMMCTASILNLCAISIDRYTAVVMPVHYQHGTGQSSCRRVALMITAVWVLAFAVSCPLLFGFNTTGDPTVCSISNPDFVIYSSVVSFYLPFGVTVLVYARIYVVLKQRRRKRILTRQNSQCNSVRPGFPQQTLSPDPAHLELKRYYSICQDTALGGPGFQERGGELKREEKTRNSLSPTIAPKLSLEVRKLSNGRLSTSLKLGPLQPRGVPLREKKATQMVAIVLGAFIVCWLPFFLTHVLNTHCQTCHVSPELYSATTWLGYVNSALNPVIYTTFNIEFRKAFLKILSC

| Molecule | Ki |
| --- | --- |
| CCCN[C@@H]1CCc2c(OC)cccc2[C@@H]1C [AJ 76, [cis(+)-1S,2R]-5-methoxy-1-methyl-2-n-propylaminotetralin] | 69.2 nM |

same assay, conditions: [125I]-iodosulpride 0.2 nM, CHO cell membranes, 30 min at 30° C.; pKi=-logKi; read-out: pKi (human D3) (converted)

| Molecule | Ki |
| --- | --- |
| CCCN(CCc1ccc(O)cc1)C1CCc2cc3c(cc2C1)OCC3 (racemic) [Example 3, (7RS)-7-{N-[2-(4-hydroxyphenyl)ethyl]-N-propylamino}-5,6,7,8-tetrahydronaphtho[2,3-b]2,3-dihydrofuran] | 2.24 nM |
| NC1CCc2cc3ccoc3cc2C1 (stereo not drawn) | 389 nM |
| CCOCCNC1CCc2cc3c(cc2C1)OCC3 (stereo not drawn) | 759 nM |
| FC(F)(F)CNC1CCc2cc3c(cc2C1)OCC3 (stereo not drawn) | 10000 nM |
| CCCN(CCCc1ccc2c(c1)CC(=O)N2)C1CCc2cc3c(cc2C1)OCC3 (racemic) [Example 7, (7RS)-7-{N-[3-((3H)-indol-2-on-5-yl)propyl]-N-propylamino}-5,6,7,8-tetrahydronaphtho[2,3-b]2,3-dihydrofuran] | 3.47 nM |
| NC1CCc2cc3c(cc2C1)OCC3 (stereo not drawn) | 158 nM |
| CN(CC1CCCCC1)C1CCc2cc3c(cc2C1)OCC3 (stereo not drawn) | 151 nM |
| CCCN(CCc1ccc2c(c1)CC(=O)N2)C1CCc2cc3c(cc2C1)OCC3 (racemic) [Example 6, (7RS)-7-{N-[2-((3H)-indol-2-on-5-yl)ethyl]-N-propylamino}-5,6,7,8-tetrahydronaphtho[2,3-b]2,3-dihydrofuran] | 1.15 nM |
| c1ccc(CNC2CCc3cc4c(cc3C2)OCC4)cc1 (stereo not drawn) | 1170 nM |
| CN(C)C1CCc2cc3c(cc2C1)OCC3 (stereo not drawn) | 209 nM |
| CCCN(CCCc1ccc(NC(C)=O)cc1)C1CCc2cc3c(cc2C1)OCC3 (racemic) [Example 13] | 3.55 nM |

same assay, conditions: human D3 vs D2 binding

| Molecule | selectivity for the D3 receptor compared with the D2 receptor |
| --- | --- |
| CCCN[C@@H]1CCc2c(OC)cccc2[C@@H]1C [AJ 76, [cis(+)-1S,2R]-5-methoxy-1-methyl-2-n-propylaminotetralin] | 2 |

same assay, conditions: radioligand dissociation constant used in Ki formula

| Molecule | Kd |
| --- | --- |
| [^125 I]-iodosulpride | 1.31 nM |

biological target: T2, human dopamine D2 receptor (Homo sapiens, UniProt P14416); experiment: binding to human D2 receptors expressed in CHO cells ([125I]-iodosulpride); settings: radioligand dissociation constant used in Ki formula
T2 construct: expressed in transfected cells; membranes
Description: as §1
as §2, with “The compositions of the culture media used are, for CHO--D2 : DMEM (Dulbecco's Modified Eagle Medium) supplemented with 10% foetal calf serum and hypoxanthine/thymidine and, for CHO--D3 : DMEM supplemented with 10% dialysed foetal calf serum. The confluent cells are harvested and the membranes are then prepared.” left out
as §3
The incubation, which lasts 30 minutes at 30° C., is terminated by rapid filtration in a Brandle apparatus, followed by three consecutive washes with tris-HCl buffer, pH 7.4, containing 120 m M NaCl. The filters recovered are then counted with a gamma counter. […]

T2 sequence (P14416 whole entry): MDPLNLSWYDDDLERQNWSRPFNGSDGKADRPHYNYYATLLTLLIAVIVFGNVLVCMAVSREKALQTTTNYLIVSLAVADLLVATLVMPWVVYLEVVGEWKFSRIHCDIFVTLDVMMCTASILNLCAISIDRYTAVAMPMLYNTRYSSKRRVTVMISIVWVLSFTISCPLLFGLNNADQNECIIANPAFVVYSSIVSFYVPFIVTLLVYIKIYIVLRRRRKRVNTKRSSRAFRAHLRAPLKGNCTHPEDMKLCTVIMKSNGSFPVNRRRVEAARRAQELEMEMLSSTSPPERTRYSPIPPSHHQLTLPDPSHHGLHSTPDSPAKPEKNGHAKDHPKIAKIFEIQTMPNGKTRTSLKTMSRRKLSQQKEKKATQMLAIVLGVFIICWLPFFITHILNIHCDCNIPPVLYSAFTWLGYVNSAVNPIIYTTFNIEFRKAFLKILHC

| Molecule | Kd |
| --- | --- |
| [^125 I]-iodosulpride | 0.5 nM |
